According to EP1459760A9, “Immunopotentiating inosine monophosphate 5'-nucleotidase resistant derivatives and uses thereof” (UNIVERSITY OF SOUTH FLORIDA, priority 1995, dated 1996):

What was measured:
[1] = test system: 5'-nucleotidase (from Crotalus atrox venom); format: biochemical
5'-nucleotidase = test: Percent hydrolysis by 5'-nucleotidase, further set of experiments; format: biochemical, Crotalus atrox; conditions: 20 minutes, 200 µl
influenza virus = test system: influenza virus; set-up: species or system NMRI mice; conditions: mouse, in vivo
[2] = in vivo; cited from earlier work

In the case of `Nc1ncnc2c1ncn2[C@@H]1O[C@H](COP(=O)(O)O)[C@@H](O)[C@H]1O` [Adenosine MP, adenosine-5'-monophosphate], the “Hydrolysis (%)” value [1] is reported as 86.0%, the “Percent hydrolysis by 5'-nucleotidase” value (5'-nucleotidase; Assay 1) is reported as 100.0% and the “Percent hydrolysis by 5'-nucleotidase” value (5'-nucleotidase; Assay 2) is reported as 95.1%. The “Percent hydrolysis by 5'-nucleotidase” value (5'-nucleotidase; Assay 3) was 63.7%.
For `CC(C)CCCC(C)CCCC(C)CCCCC(C)CCCC(C)CCCC(C)C` (stereo not drawn) [Squalane], the “effect on survivors and MST” value (influenza virus) was “no effect”.
In the case of isoprinosine, the half-life [2] is listed as “less than four”.
